Consider 16 compounds from BindingDB's records for PubMed 9686407 (Sri International, 1998).

pKi: −log10 of the molar value. Non-standard residues stand in square brackets, D forms with d. Residues, ends and D or L forms follow the SMILES beside them. NMeF = CN[C@@H](Cc1ccccc1)C(=O)O

Assay [1] concerns the target Kappa-type opioid receptor (Cavia porcellus, UniProt P41144).
A further assay deals with Mu-type opioid receptor (Cavia porcellus, UniProt P97266).
Assay [2] has as its target T1, 5-hydroxytryptamine receptor 2C (Rattus norvegicus, UniProt P08909).
T1 sequence (P08909 whole entry): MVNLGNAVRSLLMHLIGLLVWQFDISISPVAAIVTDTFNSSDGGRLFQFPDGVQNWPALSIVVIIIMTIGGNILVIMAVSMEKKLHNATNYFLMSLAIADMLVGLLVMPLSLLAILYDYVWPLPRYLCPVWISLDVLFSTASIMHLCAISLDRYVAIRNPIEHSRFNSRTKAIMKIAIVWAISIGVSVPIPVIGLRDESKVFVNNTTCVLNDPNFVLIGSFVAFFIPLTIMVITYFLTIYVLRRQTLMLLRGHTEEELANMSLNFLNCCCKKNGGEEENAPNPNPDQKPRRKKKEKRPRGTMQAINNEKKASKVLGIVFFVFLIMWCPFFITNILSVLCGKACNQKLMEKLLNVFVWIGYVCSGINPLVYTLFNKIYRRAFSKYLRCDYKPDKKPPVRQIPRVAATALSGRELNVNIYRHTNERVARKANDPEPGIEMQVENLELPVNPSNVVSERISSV

In assay [3] the target is 5-hydroxytryptamine receptor 5A (Rattus norvegicus, UniProt P35364).
Sequence of 5-hydroxytryptamine receptor 5A (P35364 whole entry): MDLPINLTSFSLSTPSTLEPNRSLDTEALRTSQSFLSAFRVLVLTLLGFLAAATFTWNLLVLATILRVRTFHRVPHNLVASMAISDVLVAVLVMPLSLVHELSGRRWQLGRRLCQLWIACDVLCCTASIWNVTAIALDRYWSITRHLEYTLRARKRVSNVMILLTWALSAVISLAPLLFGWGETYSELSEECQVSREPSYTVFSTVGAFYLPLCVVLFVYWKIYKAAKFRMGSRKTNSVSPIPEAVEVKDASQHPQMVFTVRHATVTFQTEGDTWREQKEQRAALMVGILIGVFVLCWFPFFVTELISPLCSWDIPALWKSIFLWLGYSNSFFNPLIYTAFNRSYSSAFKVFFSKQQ

Sequence of Mu-type opioid receptor (P97266 whole entry): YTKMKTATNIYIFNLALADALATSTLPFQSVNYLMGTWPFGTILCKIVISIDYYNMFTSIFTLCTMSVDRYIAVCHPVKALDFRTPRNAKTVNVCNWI
Sequence of Kappa-type opioid receptor (P41144 whole entry): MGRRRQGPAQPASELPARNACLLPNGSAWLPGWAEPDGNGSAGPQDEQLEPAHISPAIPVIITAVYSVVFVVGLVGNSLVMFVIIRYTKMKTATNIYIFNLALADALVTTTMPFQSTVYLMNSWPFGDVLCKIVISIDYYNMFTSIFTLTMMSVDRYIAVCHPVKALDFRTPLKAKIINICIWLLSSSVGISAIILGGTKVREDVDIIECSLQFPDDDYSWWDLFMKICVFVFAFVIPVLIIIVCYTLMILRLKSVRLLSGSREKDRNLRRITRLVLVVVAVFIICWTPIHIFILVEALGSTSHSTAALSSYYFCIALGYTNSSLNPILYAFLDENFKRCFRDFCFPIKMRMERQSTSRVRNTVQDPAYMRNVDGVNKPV

Turning to `CN(C(=O)[C@@H]1CCCN1C(=O)[C@@H](N)Cc1ccc(O)cc1)[C@@H](Cc1ccccc1)C(=O)N1CCC[C@@H]1C(N)=O` (H-YP[NMeF][dP]-NH2), the negative-log Ki (pKi) (usually the Ki on a negative log10 scale, so that one unit is a factor of ten) was < 5.00 in assay [1] and 8.09 at Mu-type opioid receptor.
The corresponding values for `CN1CC[C@]23CCCC[C@H]2[C@H]1Cc1ccc(O)cc13` [CAS_5985-38-6] are 8.47 and 9.52.
With `Oc1ccc2c3c1O[C@H]1c4oc5ccccc5c4C[C@@]4(O)[C@@H](C2)N(CC2CC2)CC[C@]314` [CAS_111555-58-9], the figures for the pKi (in assay [1]; at Mu-type opioid receptor) were 7.99 and 8.19, respectively.
The corresponding values for `CN1CCC2(C)c3cc(O)ccc3CC1C2(C)CCC(=O)CCC1CCCC1` (configuration not stated) [CAS_115077] are 9.70 and 10.00.
As to `C[C@@H](O)[C@H](NC(=O)[C@H]1NC(=O)[C@H]([C@@H](C)O)NC(=O)[C@H](CCCN=C(N)N)NC(=O)[C@@H](Cc2c[nH]c3ccccc23)NC(=O)[C@H](Cc2ccc(O)cc2)NC(=O)[C@@H](NC(=O)[C@H](N)Cc2ccccc2)CSSC1(C)C)C(N)=O` [CTAP-NH2], the figures for the pKi (in assay [1]; on Mu-type opioid receptor) were 5.98 and 9.30, respectively.
The corresponding values for `CC(C)C[C@H](NC(=O)[C@H](Cc1ccccc1)NC(=O)CNC(=O)[C@@H](CO)NC(=O)[C@@H](N)Cc1ccc(O)cc1)C(=O)N[C@H](C(=O)O)[C@@H](C)O` [DSLET-OH] are < 5.00 and 7.69.
Consider `C=CCN1CC[C@]23c4c5ccc(O)c4O[C@H]2[C@@H](O)C=CC3[C@H]1C5` (some centres not stated) [NALORPHINE - HCI], for which the pKi was 8.77 in assay [1] and 8.72 at Mu-type opioid receptor.
The corresponding values for `Oc1ccc2c3c1OC1c4[nH]c5ccccc5c4CC4(O)[C@H](C2)N(CC2CC2)CCC314` (some centres not stated) [NALTRINDOLE] are 8.11 and 9.70.
In the same order, the values of `Oc1ccc2c3c1OC1C(O)C=CC4C(C2)NCCC341` (configuration not stated) [NORMORPHINE] are 7.19 and 8.41.
Consider `C=C1CCC2(O)C3Cc4ccc(O)c5c4C2(CCN3CC2CC2)C1O5` (configuration not stated) [NSC_119501], for which the pKi (in assay [1]; at Mu-type opioid receptor) was 9.52 each time.
With `COc1ccc2c3c1OC1C(O)C=CC4C(C2)N(C)CCC341` (configuration not stated) [NSC_223652], the pKi in assay [1] was < 5.00; at Mu-type opioid receptor, 6.82.
As for `NCC(O)c1ccc(O)c(O)c1` (stereo not drawn) [Noradrenaline,(+)], the pKi in assay [2] and in assay [3] was < 5.00 throughout.
In the case of `CC(C)=CCN1CC[C@@]2(C)c3cc(O)ccc3C[C@@H]1[C@@H]2C` [Talwin], the pKi in assay [1] was 8.36; on Mu-type opioid receptor it was 8.24.
The corresponding values for `CC(C)C[C@@H](NC(=O)[C@H](Cc1ccccc1)NC(=O)CNC(=O)[C@@H](C)NC(=O)[C@@H](N)Cc1ccc(O)cc1)C(=O)O` [[D-Ala2-D-Leu5]enkephalin] are < 5.00 and 8.49.
In the case of `C[C@@H](NC(=O)[C@@H](N)Cc1ccc(O)cc1)C(=O)NCC(=O)N(C)[C@@H](Cc1ccccc1)C(=O)NCCO` [[tyrosyl-3,5-3H(N)]-D-Ala2-Mephe4-glyol5-enkephalin], the pKi in assay [1] is 5.73; on Mu-type opioid receptor, 8.96.
In the same order, the values of “H-YGGFMTSEKSQTPLVTLFKNAIVKNAHKKGQ-OH [Beta-Endorphin]” are 7.36 and 8.64.
